Experiment [1] concerns the target T1, AHR (Mus musculus, UniProt P30561).
T1 sequence (P30561 1-848 P471L/N533S/M589L): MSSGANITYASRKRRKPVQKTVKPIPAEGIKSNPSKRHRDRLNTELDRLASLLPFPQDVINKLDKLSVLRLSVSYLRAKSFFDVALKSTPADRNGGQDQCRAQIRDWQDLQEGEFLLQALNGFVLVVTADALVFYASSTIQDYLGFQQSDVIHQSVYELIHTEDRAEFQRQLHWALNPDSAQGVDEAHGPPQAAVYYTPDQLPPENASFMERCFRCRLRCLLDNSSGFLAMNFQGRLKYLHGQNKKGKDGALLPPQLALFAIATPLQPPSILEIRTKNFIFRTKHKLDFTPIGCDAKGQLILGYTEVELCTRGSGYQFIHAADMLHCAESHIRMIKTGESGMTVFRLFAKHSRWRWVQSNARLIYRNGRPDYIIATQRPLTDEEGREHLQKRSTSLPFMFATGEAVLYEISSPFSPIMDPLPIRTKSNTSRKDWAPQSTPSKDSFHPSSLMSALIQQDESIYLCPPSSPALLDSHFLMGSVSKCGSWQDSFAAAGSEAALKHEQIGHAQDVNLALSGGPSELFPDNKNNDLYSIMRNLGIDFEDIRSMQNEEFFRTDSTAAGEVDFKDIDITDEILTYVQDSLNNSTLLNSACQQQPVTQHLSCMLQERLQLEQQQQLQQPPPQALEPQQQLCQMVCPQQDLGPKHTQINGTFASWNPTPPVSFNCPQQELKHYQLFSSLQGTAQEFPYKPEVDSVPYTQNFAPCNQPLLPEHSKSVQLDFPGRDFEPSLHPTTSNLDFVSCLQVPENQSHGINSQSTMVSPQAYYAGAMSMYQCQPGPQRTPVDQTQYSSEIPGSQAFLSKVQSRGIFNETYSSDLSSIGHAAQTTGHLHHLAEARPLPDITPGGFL
The experiment in a line: In vitro assay 3: antagonism in mouse cell line (AHR transactivation, firefly luciferase reporter, kynurenic acid prestimulated). Format: cell-based. Summed up:
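Mouse cells stably carrying a DRE-driven AHR-inducible firefly luciferase reporter were prestimulated with the endogenous agonist kynurenic acid before compound addition. Luciferase read by SteadyGlo; cells without kynurenic acid served as full-inhibition control, with normalization to positive and negative controls. Repeat tests reported as mean or median.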
A general note: In a reporter assay the amount or activity of a reporter protein is the signal.

Experiment [2] deals with T2, AHR (Homo sapiens, UniProt P35869).
T2 construct: U87 MG glioblastoma cells (ATCC #HTB-14) endogenously expressing AHR; endogenous in cells; host or cells: U87 MG glioblastoma cells (ATCC #HTB-14)
T2 sequence (P35869 11-848): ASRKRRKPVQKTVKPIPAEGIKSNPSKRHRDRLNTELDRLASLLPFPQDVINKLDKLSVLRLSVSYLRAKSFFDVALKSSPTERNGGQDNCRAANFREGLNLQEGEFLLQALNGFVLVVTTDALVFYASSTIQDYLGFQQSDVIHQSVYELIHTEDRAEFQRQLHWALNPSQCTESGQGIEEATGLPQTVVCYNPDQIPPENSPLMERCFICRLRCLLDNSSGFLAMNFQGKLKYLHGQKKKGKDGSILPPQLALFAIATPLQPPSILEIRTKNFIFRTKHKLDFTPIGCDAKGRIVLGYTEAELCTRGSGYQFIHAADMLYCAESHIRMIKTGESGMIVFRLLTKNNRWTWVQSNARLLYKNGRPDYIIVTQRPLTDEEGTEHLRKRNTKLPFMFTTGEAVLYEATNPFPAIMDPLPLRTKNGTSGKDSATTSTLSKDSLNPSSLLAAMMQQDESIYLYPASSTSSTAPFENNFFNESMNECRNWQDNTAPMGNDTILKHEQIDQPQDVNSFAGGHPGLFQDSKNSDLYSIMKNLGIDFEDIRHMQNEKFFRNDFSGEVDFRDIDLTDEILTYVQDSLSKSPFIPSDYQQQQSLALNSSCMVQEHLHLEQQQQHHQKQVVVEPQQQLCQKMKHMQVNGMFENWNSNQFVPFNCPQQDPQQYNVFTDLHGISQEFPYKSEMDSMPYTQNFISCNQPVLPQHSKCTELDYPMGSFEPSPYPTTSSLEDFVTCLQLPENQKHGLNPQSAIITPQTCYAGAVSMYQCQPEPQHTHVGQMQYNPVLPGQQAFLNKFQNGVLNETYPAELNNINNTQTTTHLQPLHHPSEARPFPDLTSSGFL
The experiment in a line: In vitro assay 1: antagonism in human cell line (AHR transactivation, firefly luciferase reporter, kynurenic acid prestimulated). Format: cell-based. The conditions noted are these: AHR Antagonism Human IC50 [M]. Summed up:
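U87 MG glioblastoma cells with endogenous AHR, stably carrying a DRE-driven firefly luciferase reporter and constitutive Renilla reporter, prestimulated with kynurenic acid before compound addition. Firefly and Renilla read by dual luciferase; Renilla flags toxicity; normalized to controls (150 μM kynurenic acid + 5 μM staurosporine as full inhibition); repeat values averaged or median.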

[3] abbreviates: mouse Hepa 1c1c7 cells, 200 μM kynurenic acid, 20 hours, read-out: AHR Antagonism Mouse IC50.
Where [4] appears, read: Hepa 1c1c7 cells, 200 μM kynurenic acid, 20 hours, firefly luciferase reporter, read-out: AHR Antagonism Mouse IC50.

Where two headings read alike, the source gives them in different places.

In general, IC50 refers to the midpoint of a concentration-inhibition curve.

As to `COc1ccc(-c2nc3c4cccc(Br)c4nc(N[C@@H]4CCCCNC4=O)n3n2)c(OC(F)(F)F)c1` [Example 565, (3R)-3-({7-bromo-2-[4-methoxy-2-(trifluoromethoxy)phenyl][1,2,4]triazolo[1,5-c]quinazolin-5-yl}amino)azepan-2-one], the concentration for half-maximal inhibition (IC50) on AHR [1] (setting [3]) turned out to be 3.33 nM; against AHR [2], 8.44e-09 M.

Regarding `COc1ccc(-c2nc3c4ccccc4nc(N[C@H](C)C(=O)N4CCN(C)CC4)n3n2)cc1` [Example 777, (2R)-2-{[2-(4-methoxyphenyl)[1,2,4]triazolo[1,5-c]quinazolin-5-yl]amino}-1-(4-methylpiperazin-1-yl)propan-1-one], the IC50 was determined as 2.21 nM on AHR [1] (setting [3]) and 1.8e-09 M at AHR [2].

`COc1cccc(-c2nc3c4ccccc4nc(N[C@H](C)C(=O)NC(C)C)n3n2)c1` [Example 105, N^2-[2-(3-methoxyphenyl)[1,2,4]triazolo[1,5-c]quinazolin-5-yl]-N-propan-2-yl-D-alaninamide]: the IC50 on AHR [1] (setting [3]) was 7.35 nM; on AHR [2] it was 8.86e-09 M.

As for `CC[C@@H](Nc1nc2ccccc2c2nc(-c3ccc(Cl)cc3OC(F)(F)F)nn12)C(N)=O` [Example 523, (2R)-2-({2-[4-chloro-2-(trifluoromethoxy)phenyl][1,2,4]triazolo[1,5-c]quinazolin-5-yl}amino)butanamide], the values for the IC50 at AHR [1] (setting [3]) and against AHR [2] were 0.84 nM and 4.99e-09 M, respectively.

Consider `Cc1nn(C)cc1-c1nc2c3cccc(Br)c3nc(N[C@@H]3CNCCNC3=O)n2n1` [Example 962, (6R)-6-{[7-bromo-2-(1,3-dimethyl-1H-pyrazol-4-yl)[1,2,4]triazolo[1,5-c]quinazolin-5-yl]amino}-1,4-diazepan-5-one], for which the half-inhibitory concentration (IC50) came out at 10.9 nM on AHR [1] (setting [4]) and 4.37e-09 M against AHR [2] (firefly luciferase reporter).

As to `CC[C@H](Nc1nc2ccccc2c2nc(-c3cccc(C#N)c3)nn12)C(N)=O` [Example 442, (2S)-2-{[2-(3-cyanophenyl)[1,2,4]triazolo[1,5-c]quinazolin-5-yl]amino}butanamide], the IC50 turned out to be 264 nM on AHR [1] (setting [3]) and 4.89e-06 M against AHR [2].

In the case of `CC(C)Sc1cccc2c1nc(N[C@@H]1CCCCNC1=O)n1nc(-c3cnn(C)c3)nc21` [Example 768], the IC50 worked out at 1220 nM on AHR [1] (read-out: AHR Antagonism Mouse IC50, mouse Hepa 1c1c7 cells, 200 μM kynurenic acid, 20 hours) and 1.32e-07 M at AHR [2].

On to `N#Cc1ccc(-c2nc3c4cccc(Br)c4nc(N[C@@H]4CNCCNC4=O)n3n2)cc1` [Example 717, 4-(7-bromo-5-{[(6R)-5-oxo-1,4-diazepan-6-yl]amino}[1,2,4]triazolo[1,5-c]quinazolin-2-yl)benzonitrile], for which the concentration for half-maximal inhibition (IC50) stood at 0.95 nM at AHR [1] (setting [3]) and 7.05e-10 M at AHR [2].

As for `N#Cc1ccccc1-c1nc2c3ccccc3nc(N[C@@H]3CCCCNC3=O)n2n1` [Example 619, 2-(5-{[(3R)-2-oxoazepan-3-yl]amino}[1,2,4]triazolo[1,5-c]quinazolin-2-yl)benzonitrile], the IC50 was determined as 2.96 nM at AHR [1] (setting [3]) and 1.44e-09 M on AHR [2].

In the case of `O=C1NCCCC[C@H]1Nc1nc2ccccc2c2nc(-c3cccc(C(F)(F)F)n3)nn12` [Example 370, (3R)-3-({2-[6-(trifluoromethyl)pyridin-2-yl][1,2,4]triazolo[1,5-c]quinazolin-5-yl}amino)azepan-2-one], the values for the half-maximal inhibitory concentration (IC50) at AHR [1] (setting [3]) and against AHR [2] were 6.38 nM and 5.45e-08 M, respectively.

Regarding `C[C@@H](Nc1nc2c(Br)cccc2c2nc(-c3cnn(C)c3)nn12)C(=O)NCCN(C)C(=O)OC(C)(C)C` [Example 888, tert-butyl [2-({N-[7-bromo-2-(1-methyl-1H-pyrazol-4-yl)[1,2,4]triazolo[1,5-c]quinazolin-5-yl]-D-alanyl}amino)ethyl]methylcarbamate], the IC50 was 24.8 nM on AHR [1] (setting [4]) and 1.73e-08 M against AHR [2] (firefly luciferase reporter).

`COc1ccc(-c2nc3c4ccccc4nc(N[C@@H]4CCCCNC4=O)n3n2)c(OC(F)(F)F)c1` [Example 508, (3R)-3-({2-[4-methoxy-2-(trifluoromethoxy)phenyl][1,2,4]triazolo[1,5-c]quinazolin-5-yl}amino)azepan-2-one]: the IC50 at AHR [1] (setting [3]) amounted to 4.21 nM; against AHR [2], 3.53e-09 M.
